Assay results taken from paper PMC10733463, “Berberine-microbiota interplay: orchestrating gut health through modulation of the gut microbiota and metabolic transformation into bioactive metabolites” (Frontiers in Pharmacology, 2023).

Experiments:
CD3+ T-cells = test: CD3 immunohistochemistry of duodenal tissue; assay type: in vivo, Ross 308 broiler chickens; settings: duodenum, 21 days
Excerpt: The study was undertaken following the guidelines of the ethics committee of the Faculty of Veterinary Medicine and Bioscience Engineering, Ghent University, in accordance with the EU Directive 2010/63/EU. […] They were allotted into 4 groups, with three replicate pens per group each housing 8 chickens. The animals were not vaccinated. Water and commercial starter feed (day 1-12, FARM 1 Mash, Country's Best, […], Belgium) or grower (day 13-21, FARM 2 mash, Country's Best, […], Belgium) were provided ad libitum. […] At day 21, 4 birds per pen were weighted then euthanized by sodium pentobarbital injection for sampling. […] Additionally, ileal and caecal content samples were collected and stored at -20°C for berberine and berberine-derived metabolite quantification. […] Slides for immunohistochemical staining for CD3^+ T-cells were automatically deparaffinized (Shandon […]-Gemini) before antigen retrieval with a pressure cooker in citrate buffer (10 mM, pH 6). Endogenous peroxidase activity was blocked by treating the slides with peroxidase blocking reagent ([…], Dako, Glostrup, Denmark) for 5 min. The presence of T-cells (CD3-positive cell abundance) in duodenal tissue from 21-day old chickens was evaluated using polyclonal primary antibodies against CD3 ([…], Dako, 1:100 dilution, 30 min at room temperature), followed by incubation with a secondary labelled polymer-HRP anti-rabbit antibody (Envision + System-HRP (DAB) ([…]), 30 min at room temperature). Slides were evaluated using the computer-based image analysis program, LAS V4.1. The CD3^+ area percentage in the duodenal tissue was quantified using four representative fields of view per intestinal section (10x objective).

colonic microbiota = test: 16S rRNA gene sequencing, microbiota composition in the colon; assay type: in vivo, Ross 308 broiler chickens
Caco-2 cells = test: Cell viability assay (neutral red uptake), Caco-2; assay type: cell-based, human; settings: 0.1 µg berberine/mL medium
Procedure: (§1) Caco-2 cells (human intestinal epithelial cells) were cultured in MEM (Gibco, Paisley, United Kingdom) supplemented with 10% Fetal Bovine Serum (FBS), 1% L-glutamine (Gibco), 1% MEM NEAA (Gibco) and 1% penicillin/streptomycin (P/S) (Gibco). T84 cells (human intestinal epithelial cells) were cultured in 1:1 DMEM/F12 (Gibco) supplemented with 10% FBS, 1% L-glutamine and 1% P/S (37°C, 5% CO2). The neutral red uptake assay was employed to evaluate the potential cytotoxicity of berberine ([Repetto et al., 2008]). Briefly, Caco-2 and T84 were seeded at 2 × 10^5 cells/well and 5 × 10^4 cells/well respectively in 96-well plates (Greiner Bio-one, Frickenhausen, Germany) and cultivated for 24 h in antibiotic-free medium (treatment medium) for attachment. […] A 10-fold dilution of sodium dodecyl sulfate (Sigma-Aldrich), ranging from 10 mg/mL to 10^−6 mg/mL was used a positive control. Cells were washed with 200 µL pre-warmed HBSS(+) (Gibco) and then treated with 150 µL of Neutral Red medium, consisting of 1:80 Neutral Red solution 0.33% (Sigma-Aldrich)/treatment medium for 3 h. Cells were washed in 200 µL HBSS(+) and treated with 100 µL of Neutral Red Desorb solution, consisting of 1% glacial acetic acid (Merck, Darmstadt, Germany), 50% ethanol (95%, Chem-Lab, Zedelgem, Belgium) and 49% deionized water.

T84 cells = test: Cell viability assay (neutral red uptake), T84; assay type: cell-based, human; settings: 0.1 µg berberine/mL medium
Procedure: as §1

[1] = 0.1 g berberine/kg feed vs normal diet, 21 days, LinDA-normalized abundance
[2] = 0.1 g berberine/kg feed, 21 days
[3] = 0.5 g berberine/kg feed vs normal diet, 21 days, LinDA-normalized abundance
[4] = 0.5 g berberine/kg feed, 21 days
[5] = 1 g berberine/kg feed vs normal diet, 21 days, LinDA-normalized abundance

COc1ccc2cc3[n+](cc2c1OC)CCc1cc2c(cc1-3)OCO2 [Berberine, Berberine chloride]
CD3+ area percentage (CD3+ T-cells; 0.1 g berberine/kg feed): 8.39 ± 1.05 | CD3+ area percentage (CD3+ T-cells; 0.5 g berberine/kg feed): 8.89 ± 2.09 | CD3+ area percentage (CD3+ T-cells; 1 g berberine/kg feed): 7.11 ± 2.18 | L2 FC Family_ Peptostreptococcaceae, 0.1 vs 0 (colonic microbiota; [1]): -1.21 | L2 FC GCA-900066575, 0.1 vs 0 (colonic microbiota; [1]): 3.13 | L2 FC Lachnospiraceae UCG-010, 0.1 vs 0 (colonic microbiota; [1]): 2.34 | L2 FC Romboutsia, 0.1 vs 0 (colonic microbiota; [1]): -0.31 | L2 FC Ruminococcaceae UCG-014, 0.1 vs 0 (colonic microbiota; [1]): 5.39 | L2 FC uncultured genus of Peptostreptococcaceae, 0.1 vs 0 (colonic microbiota; [1]): -1.31 | Mean relative abundance (%) Family_ Peptostreptococcaceae (colonic microbiota; [2]): 0.11% | Mean relative abundance (%) GCA-900066575 (colonic microbiota; [2]): 0.59% | Mean relative abundance (%) Lachnospiraceae UCG-010 (colonic microbiota; [2]): 0.06% | Mean relative abundance (%) Romboutsia (colonic microbiota; [2]): 0.14% | Mean relative abundance (%) Ruminococcaceae UCG-014 (colonic microbiota; [2]): 3.36% | Mean relative abundance (%) uncultured genus of Peptostreptococcaceae (colonic microbiota; [2]): 13.82% | Mean relative abundance of Peptostreptococcaceae (colonic microbiota; [2]): 14.07% | L2FC of LinDA-normalized abundance of Peptostreptococcaceae (colonic microbiota; 0.1 vs 0 g berberine/kg feed): -0.79 | L2 FC Family_ Peptostreptococcaceae, 0.5 vs 0 (colonic microbiota; [3]): -2.31 | L2 FC GCA-900066575, 0.5 vs 0 (colonic microbiota; [3]): 1.10 | L2 FC Lachnospiraceae UCG-010, 0.5 vs 0 (colonic microbiota; [3]): 0.64 | L2 FC Romboutsia, 0.5 vs 0 (colonic microbiota; [3]): -1.42 | L2 FC Ruminococcaceae UCG-014, 0.5 vs 0 (colonic microbiota; [3]): 2.59 | L2 FC uncultured genus of Peptostreptococcaceae, 0.5 vs 0 (colonic microbiota; [3]): -1.92 | Mean relative abundance (%) Family_ Peptostreptococcaceae (colonic microbiota; [4]): 0.13% | Mean relative abundance (%) GCA-900066575 (colonic microbiota; [4]): 0.53% | Mean relative abundance (%) Lachnospiraceae UCG-010 (colonic microbiota; [4]): 0.03% | Mean relative abundance (%) Romboutsia (colonic microbiota; [4]): 0.11% | Mean relative abundance (%) Ruminococcaceae UCG-014 (colonic microbiota; [4]): 1.19% | Mean relative abundance (%) uncultured genus of Peptostreptococcaceae (colonic microbiota; [4]): 15.49% | Mean relative abundance of Peptostreptococcaceae (colonic microbiota; [4]): 15.73% | L2FC of LinDA-normalized abundance of Peptostreptococcaceae (colonic microbiota; 0.5 vs 0 g berberine/kg feed): -0.94 | L2 FC Family_ Peptostreptococcaceae, 1 vs 0 (colonic microbiota; [5]): -6.62 | L2 FC GCA-900066575, 1 vs 0 (colonic microbiota; [5]): 2.34 | L2 FC Lachnospiraceae UCG-010, 1 vs 0 (colonic microbiota; [5]): 0.99 | L2 FC Romboutsia, 1 vs 0 (colonic microbiota; [5]): -6.45 | L2 FC Ruminococcaceae UCG-014, 1 vs 0 (colonic microbiota; [5]): 3.32 | L2 FC uncultured genus of Peptostreptococcaceae, 1 vs 0 (colonic microbiota; [5]): -9.04 | Mean relative abundance (%) Family_ Peptostreptococcaceae (colonic microbiota; 1 g berberine/kg feed, 21 days): 0.01% | Mean relative abundance (%) GCA-900066575 (colonic microbiota; 1 g berberine/kg feed, 21 days): 0.65% | Mean relative abundance (%) Lachnospiraceae UCG-010 (colonic microbiota; 1 g berberine/kg feed, 21 days): 0.06% | Mean relative abundance (%) Romboutsia (colonic microbiota; 1 g berberine/kg feed, 21 days): 0.00% | Mean relative abundance (%) Ruminococcaceae UCG-014 (colonic microbiota; 1 g berberine/kg feed, 21 days): 1.02% | Mean relative abundance (%) uncultured genus of Peptostreptococcaceae (colonic microbiota; 1 g berberine/kg feed, 21 days): 0.50% | Mean relative abundance of Peptostreptococcaceae (colonic microbiota; 1 g berberine/kg feed, 21 days): 0.51% | L2FC of LinDA-normalized abundance of Peptostreptococcaceae (colonic microbiota; 1 vs 0 g berberine/kg feed): -8.67 | Observed number of OTUs (colonic microbiota; lowest concentration (0.1 g/kg feed), p = 0.026): significantly increased | Cytotoxicity (Neutral Red Uptake) (Caco-2 cells): considered safe | Cytotoxicity (Neutral Red Uptake) (T84 cells): considered safe
